Measured values as given in patent publication US9212189B2, “Fluorescent probes for reactive sulfur species” (THE REGENTS OF THE UNIVERSITY OF CALIFORNIA, priority 2011, dated 2015).

What was measured:
[1] = Spectroscopic properties (absorbance, emission, quantum yield); assay type: physicochemical; conditions: for ε (extinction coefficient) of reaction product: at λmax; for Φ (quantum yield) of reaction product: fluorescein as standard, 20 mM HEPES pH 7.4; for λmax (absorbance) of reaction product: new absorbance band in the visible region; for λem of reaction product: product formed from 10 μM probe with 100 μM NaSH; for absorption of the protected probe in the visible region: protected form, closed lactone conformation
Protocol: (§1) Millipore water was used to prepare all aqueous solutions. All spectroscopic measurements were performed in 20 mM HEPES buffer, pH 7.4. Fluorescence spectra were recorded on a Photon Technology International Quanta Master 4 L-format scanning spectrofluorometer (Lawrenceville, N.J.) equipped with an LPS-220B 75-W xenon lamp and power supply, A-1010B lamp housing with an integrated igniter, switchable 814 photon-counting/analog photomultiplier detection unit, and MD5020 motor driver. Samples for emission measurements were contained in 1-cm×0.1-cm quartz (1.5 mL volume, Starna, Atascadero, Calif.). Absorption spectra were recorded using a Varian Cary 50 spectrophotometer (Walnut Creek, Calif.).
FIG. 1. Absorbance spectra of (a) 10 μM SF1 (b) 10 μM SF2, and 10 μM of rhodamine products (c) tert-butoxycarbonyl-rhodamine 110 and (d) morpholinourea-rhodamine 110.
Quantum yields were determined using fluorescein as a standard according to a published method.^S3 For each compound and fluorescein, the absorbance spectra were measured within an absorbance range of 0.01 to 0.1. The quantum yield was calculated according to the equation: Φsample=Φstandard (Gradsample/Gradstandard)[…], where Φ is the quantum yield, Φstandard=0.95 in 0.1 M NaOH, Grad is the slope of the plot of […], and η is the refractive index of the solvent.

[2] = Fluorescence response of 4-azido-1,8-naphthalimide to H2S
Protocol: FIG. 8. Fluorescence response of 10 μM 4-azido-1,8-naphthalimide to 100 μM H2S. Data were acquired at 25° C. in 20 mM HEPES buffered to pH 7.4 with excitation at λex=470 nm. Emission was collected between 495 and 650 nm. Time points represent 0, 15, 30, 45, and 60 min (red trace) after addition of 100 μM H2S. Reactions are not complete at these time points.

[3] = Fluorescence response of probe to H2S (NaSH) in HEPES buffer; conditions: 10 μM probe, 100 μM NaSH, after one hour of reaction
Protocol: as §1
A 10 μM solution of SF1 or SF2 in 20 mM HEPES buffered to pH 7.4 was prepared from a 5 mM stock solution of SF1 or SF2 in DMF in a 1.5 mL eppendorf tube. 10 μL of 10 mM stock solution of NaSH in degassed (by bubbling N2 for ˜30 min) 20 mM HEPES buffered at pH 7.4 was added (for a final concentration of 100 μM) and the mixture was vortexed for 10 s and then transferred to a cuvette. Emission spectra (λex=488 nm, λex=498-700 nm) were collected at 10, 20, 30, 40, 50, and 60 min. The spectrum at t=0 was acquired from a 10 μM solution of SF1 or SF2 without the addition of NaSH.
FIG. 2. Fluorescence responses of (a) 10 μM SF1 and (b) 10 μM SF2 to 100 μM H2S. […]

HEK293T cells = assay: Confocal imaging of H2S detection in live HEK293T cells; assay type: cell-based; conditions: for intracellular fluorescence intensity after NaSH: 5 μM probe 30 min, then 250 μM NaSH 30 min, excitation 488 nm; for background response in untreated cells: absence of exogenous H2S; for cell viability over the course of the experiments: bright field images co-localized with Hoescht nuclear staining
Protocol: HEK 293T cells were maintained in exponential growth as a monolayer in Dulbecco's Modified Eagle Medium (DMEM, Invitrogen) supplemented with 10% fetal bovine serum (FBS, Hyclone), and incubated at 37° C. in 5% CO2. One or two days before imaging, the cells were passaged and plated in phenol red-free medium on 4-well Lab-Tek borosilicate chambered coverglass slides (Nunc) and allowed to grow to 50-70% confluence. For all experiments, solutions of SF1 and SF2 were prepared in DMF (5 mM) and diluted into DMEM at the desired working concentrations (5 μM). NaSH was delivered from a stock solution of 25 mM in degassed (by bubbling N2 for ˜30 min) Dulbecco's Phosphate Buffered Saline (DPBS). Cells were treated with SF1 or SF2 for one hour, with NaSH (50-250 μM) or blank control added for the final 30 minutes. Images were collected at 30 min after NaSH addition. For nuclear imaging studies, cells were incubated with 1 μM Hoechst 33342 at 37° C. for 30 min prior to imaging.
Confocal Imaging Experiments. Confocal fluorescence imaging studies were performed with a Zeiss laser scanning microscope 710 with a 40× water objective lens, with Zen 2009 software (Carl Zeiss). SF1 and SF2 were excited using a 488 nm Ar laser, and emission collected using a META detector between 500 and 650 nm. Hoechst 33342 was excited with a 405 nm diode laser, and emission collected using a META detector between 450 and 500 nm. The cells were imaged at 37° C. and 5% CO2 throughout the course of the experiment. Image analysis was performed using ImageJ (National Institute of Health).
FIG. 6. Confocal images of H2S detection in live HEK293T cells using SF1 and SF2. (a) HEK293T cells incubated with SF1 for 60 min at 37° C. (b) HEK293T cells incubated with SF1 for 60 min at 37° C. with 250 μM NaSH added for the final 30 min. (c) Brightfield images of the same field of cells in (b) overlaid with images of 1 μM Hoescht stain at 37° C. (d) HEK293T cells incubated with SF2 for 60 min at 37° C. (e) HEK293T cells incubated with SF2 for 60 min at 37° C. with 250 μM NaSH added for the final 30 min. (f) Brightfield images of the same field of cells in (e) overlaid with images of 1 μM Hoescht stain at 37° C. Scale bars represent […].
FIG. 7. Mean fluorescence intensity of confocal images of H2S detected in live HEK293T cells treated with 0, 50, 100, and 250 μM H2S. (a) HEK293T cells were incubated with SF1 for 60 min at 37° C. with the indicated amount of H2S added for the final 30 min. (b) HEK293T cells were incubated with SF2 for 60 min at 37° C. with the indicated amount of H2S added for the final 30 min. Data represent the mean fluorescence intensity of distinct fields (n=4). Error bars are ±s.e.m.

[4] = Selectivity tests: fluorescence responses to biologically relevant RSS, RNS and ROS; conditions: for turn-on response for H2S relative to other RSS, ROS and RNS: 10 μM probe, 20 mM HEPES pH 7.4; for selectivity for H2S over abundant biologically relevant thiols: 5 mM glutathione and 5 mM cysteine (50× the amount of H2S tested); for response to most biologically relevant ROS or RNS: H2O2, tBuOOH, OCl−, NO2−, NO; for fluorescence response to other relevant RSS: thiosulfate, thiocyanate, S-nitroso glutathione, lipoic acid
Protocol: Selectivities for the SF1 and SF2 probes were measured by fluorescence responses (λex=488 nm, λem=525 nm) at 0, 15, 30, 45, and 60 min. All assays were performed in 20 mM HEPES buffered to pH 7.4. • H2S: 10 μL of a 10 mM stock solution of NaSH in degassed HEPES was added to 10 μM SF1 or SF2 in HEPES with 0.2% DMF. • Glutathione and cysteine: 2 μL of 5 mM SF1 or SF2 in DMF was added to 998 μL 5 mM glutathione or cysteine HEPES. • Lipoic acid: 10 μL of a 10 mM stock solution of lipoic acid in HEPES was added to 990 μL of 10 μM SF1 or SF2 in HEPES with 0.2% DMF. • Na2SO3: 10 μL of a 10 mM stock solution of Na2SO3 in HEPES was added to 990 μL of 10 μM SF1 or SF2 in HEPES with 0.2% DMF. • NaS2O3: 10 μL of a 10 mM stock solution of NaS2O3 in HEPES was added to 990 μL of 10 μM SF1 or SF2 in HEPES with 0.2% DMF. • KSCN: 10 μL of a 10 mM stock solution of KSCN in HEPES was added to 990 μL of 10 μM SF1 or SF2 in HEPES with 0.2% DMF. • S-nitrosoglutathione:^S4 10 μL of a 10 mM stock solution of S-nitroso glutathione in HEPES was added to 990 μL of 10 μM SF1 or SF2 in HEPES with 0.2% DMF. • NaNO2: 10 μL of a 10 mM stock solution of NaNO2 in HEPES was added to 990 μL of 10 μM SF1 or SF2 in HEPES with 0.2% DMF. • NO: 5 μL of a 10 mM stock solution of Proli-NONOATE in degassed (by bubbling N2 for ˜30 min) 10 mM NaOH in HEPES was added to 995 μL of a degassed (by bubbling N2 for ˜30 min) solution of 10 μM SF1 or SF2 in HEPES with 0.2% DMF. • H2O2: 10 μL of a 10 mM stock solution of H2O2 in HEPES was added to 990 μL of 10 μM SF1 or SF2 in HEPES with 0.2% DMF. • O2^−: 100 μL of a saturated solution of KO2 in DMSO (˜1 mM) was added to 900 μL of 10 μM SF1 or SF2 in HEPES with 0.2% DMF. • ^tBuOOH: 10 μL of a 10 mM stock solution of tBuOOH in HEPES buffered to was added to 990 μL of 10 μM SF1 or SF2 in HEPES with 0.2% DMF. • HOCl: 10 μL of a 10 mM stock solution of HOCl in HEPES was added to 990 μL of 10 μM SF1 or SF2 in HEPES with 0.2% DMF.
FIG. 5. Fluorescence responses of (a) 10 μM SF1 and (b) 10 μM SF2 to biologically relevant RSS, RNS, and ROS. Bars represent relative responses at 525 nm at 0, 15, 30, 45, and 60 min after addition of RSS, RNS, or ROS. Data shown are for 5 mM glutathione, 5 mM cysteine, and 100 μM for other RSS, RNS, and ROS. Data were acquired in 20 mM HEPES buffered at pH 7.4 with excitation at λex=488 nm. 1. H2S; 2. glutathione; 3. cysteine; 4. lipoic acid; 5. Na2SO3; 6. NaS2O3; 7. KSCN; 8. S-nitroso glutathione; 9. NaNO2; 10. NO; 11. H2O2; 12. O2^−; 13. ^tBuOOH; 14. HOCl.

Row | Compound | ε (extinction coefficient) of reaction product [1] | Φ (quantum yield) of reaction product [1] | λmax (absorbance) of reaction product [1] [nm] | λem of reaction product [1] [nm] | emission compared with SF1 and SF2 [2] | absorption of the protected probe in the visible region [1] | turn-on response (fluorescence) [3] [fold] | intracellular fluorescence intensity after NaSH (HEK293T cells) | background response in untreated cells (HEK293T cells) | cell viability over the course of the experiments (HEK293T cells) | cellular permeability (HEK293T cells; live HEK293T cells) | staining of cellular nuclei (HEK293T cells; live HEK293T cells) | selectivity for H2S versus superoxide (O2−) [4] | turn-on response for H2S relative to other RSS, ROS and RNS [4] | selectivity for H2S over abundant biologically relevant thiols [4] | response to most biologically relevant ROS or RNS [4] | fluorescence properties in vitro as compared to SF1 ([4]; greater response to H2S, lower background reactivity, better selectivity versus glutathione, sulfite, O2−) | fluorescence response to other relevant RSS ([4]; sulfite)
1 | morpholinourea-rhodamine 110 [Product from SF2] | 75,000 M^−1cm^−1 | 0.60 | 492 | 525 | – | – | – | – | – | – | – | – | – | – | – | – | – | –
2 | [N-]=[N+]=Nc1ccc2c3c(cccc13)C(=O)NC2=O [4-Azido-1,8-naphthalimide] | – | – | – | – | red-shifted emission | – | – | – | – | – | – | – | – | – | – | – | – | –
3 | [N-]=[N+]=Nc1ccc2c(c1)Oc1cc(NC(=O)N3CCOCC3)ccc1C21OC(=O)c2ccccc21 (stereo not drawn) [SF2, Sulfidefluor-2] | – | – | – | – | – | no absorption features in the visible region | 9 | patent increase in intracellular fluorescence intensity | little background response | confirm the cell viability | exceptional cellular permeability | significant staining of the cellular nuclei | good selectivity | selective turn-on response | high selectivity | do not respond | more favorable fluorescence properties in vitro | negligible or small fluorescence responses
4 | tert-butoxycarbonyl-rhodamine 110 [Product from SF1] | 61,000 M^−1cm^−1 | 0.51 | 490 | 525 | – | – | – | – | – | – | – | – | – | – | – | – | – | –
5 | CC(C)(C)OC(=O)Nc1ccc2c(c1)Oc1cc(N=[N+]=[N-])ccc1C21OC(=O)c2ccccc21 (stereo not drawn) [SF1, Sulfidefluor-1] | – | – | – | – | – | no absorption features in the visible region | 7 | patent increase in intracellular fluorescence intensity | little background response | confirm the cell viability | exceptional cellular permeability | – | good selectivity | selective turn-on response | high selectivity | do not respond | – | negligible or small fluorescence responses
